The values below come from patent publication US11903912B2, “Composition for preventing and treating breast cancer including selenopsammaplin A as active ingredients” (Seoul National University R & DB Foundation, priority 2019, dated 2024).

Holding throughout (assay type): cell-based
Assay [1] relates to A549 human lung cancer cells. The assay can be described thus: SRB cytotoxicity test, A549. The settings on record: SRB assay, cultured 3 days. On the procedure:
(§1) A cytotoxicity test was performed using synthesized selenopsammaplin A and derivatives thereof (Lee S K et al […] Chem Biol Interact 115:215-28).
(§2) The cytotoxicity test was performed on a total of five representative cancer cell lines. The cytotoxicity of each compound was measured using an SRB assay method (human lung cancer cells, A549; human colon cancer cells, HCT116; human breast cancer cells, MDA-MB231; human liver cancer cells, SK-HEP-1; human gastric cancer cells, SNU638).
(§3) Each cell line was sub-cultured once or twice using Roswell Park Memorial Institute (RPMI) medium 1640 (RPMI 1640) or Dulbecco's Modified Eagle's Medium (DMEM) containing 10% fetal bovine serum (FBS) inactivated by heat, 100 units/mL of penicillin, 100 μg/mL of streptomycin, and 250 ng/mL of amphotericin B at 37° C. for 1 week under a 5% CO2 condition. All cells were […] in liquid nitrogen, and then passaged three or more times to be used in the experiment. The effects of compounds on cell growth were measured using a sulforhodamine B (SRB) method (Lee et al (1998) Chemico-Biol Interact 115:215-228).
(§4) Specifically, each human cancer cell line used in the present invention was sub-cultured in an RPMI medium containing 10% FBS, 1% PSF, and the like, and 10 μl of a sample dissolved in 10% DMSO and 190 μl (4-5×10^4 cells/ml) of the cell suspension were added to each well of a 96-well plate and cultured for 3 days. 190 μl of the cell suspension was added to at least 16 wells and cultured for 30 minutes, and used as a zero-day control. The cultured cells were fixed with 10% trichloroacetic acid (TCA) and then stained with an SRB solution, and the staining solution was dissolved with 10 mM Tris-base, and then absorbance at 515 nm was measured. Using the case of culturing in 10% DMSO as a control, cell viability according to each test material treatment was measured using Equation 1 below. Etoposide was used as a positive control. % Viability=(OD(sample)−OD(0-day))/(OD(10% DMSO)−OD(0-day))×100 [Equation 1]
(§5) Assuming that a control not-treated with the sample was set at 100%, the values of sample-treated groups were expressed as percentage with respect to the control, and each test material treatment results were obtained as the mean±SEM of two or three tests. The IC50 value is the concentration of the test material for a 50% survival rate.

The test system of assay [2] is HCT116 human colon cancer cells. The assay can be described thus: SRB cytotoxicity test, HCT116. As to conditions: SRB assay, cultured 3 days. The method, then:
as §1, §2, §3, §4, §5

Assay [3] has as its system MDA-MB231 human breast cancer cells. Description: SRB cytotoxicity test, MDA-MB231. The settings on record: SRB assay, cultured 3 days. The method, then:
as §1, §2, §3, §4, §5

Assay [4] concerns SK-HEP-1 human liver cancer cells. The assay can be described thus: SRB cytotoxicity test, SK-HEP-1. As to conditions: SRB assay, cultured 3 days. On the procedure: as §1, §2, §3, §4, §5
The subject of assay [5] is SNU638 human gastric cancer cells. The assay can be described thus: SRB cytotoxicity test, SNU638. As to conditions: SRB assay, cultured 3 days. On the procedure: as §1, §2, §3, §4, §5
Assay [6] deals with T1, DOT1L (Homo sapiens, UniProt Q8TEK3).
T1 construct: based on the finding that DOT1L was overexpressed in the breast cancer cell line; endogenous in cells
Description: Inhibition of DOT1L methylation (H3K79) by western blotting. The settings on record: breast cancer cell line, FIG. 3. From the text: As confirmed in Example 1, based on the finding that DOT1L was overexpressed in the breast cancer cell line, the effects of the derivatives of the present invention on the methylation of the histone 3 lysine 79 (H3K79) residue, which is an in-vivo target of DOT1L, were examined by western blotting.

T1 sequence (Q8TEK3 whole entry): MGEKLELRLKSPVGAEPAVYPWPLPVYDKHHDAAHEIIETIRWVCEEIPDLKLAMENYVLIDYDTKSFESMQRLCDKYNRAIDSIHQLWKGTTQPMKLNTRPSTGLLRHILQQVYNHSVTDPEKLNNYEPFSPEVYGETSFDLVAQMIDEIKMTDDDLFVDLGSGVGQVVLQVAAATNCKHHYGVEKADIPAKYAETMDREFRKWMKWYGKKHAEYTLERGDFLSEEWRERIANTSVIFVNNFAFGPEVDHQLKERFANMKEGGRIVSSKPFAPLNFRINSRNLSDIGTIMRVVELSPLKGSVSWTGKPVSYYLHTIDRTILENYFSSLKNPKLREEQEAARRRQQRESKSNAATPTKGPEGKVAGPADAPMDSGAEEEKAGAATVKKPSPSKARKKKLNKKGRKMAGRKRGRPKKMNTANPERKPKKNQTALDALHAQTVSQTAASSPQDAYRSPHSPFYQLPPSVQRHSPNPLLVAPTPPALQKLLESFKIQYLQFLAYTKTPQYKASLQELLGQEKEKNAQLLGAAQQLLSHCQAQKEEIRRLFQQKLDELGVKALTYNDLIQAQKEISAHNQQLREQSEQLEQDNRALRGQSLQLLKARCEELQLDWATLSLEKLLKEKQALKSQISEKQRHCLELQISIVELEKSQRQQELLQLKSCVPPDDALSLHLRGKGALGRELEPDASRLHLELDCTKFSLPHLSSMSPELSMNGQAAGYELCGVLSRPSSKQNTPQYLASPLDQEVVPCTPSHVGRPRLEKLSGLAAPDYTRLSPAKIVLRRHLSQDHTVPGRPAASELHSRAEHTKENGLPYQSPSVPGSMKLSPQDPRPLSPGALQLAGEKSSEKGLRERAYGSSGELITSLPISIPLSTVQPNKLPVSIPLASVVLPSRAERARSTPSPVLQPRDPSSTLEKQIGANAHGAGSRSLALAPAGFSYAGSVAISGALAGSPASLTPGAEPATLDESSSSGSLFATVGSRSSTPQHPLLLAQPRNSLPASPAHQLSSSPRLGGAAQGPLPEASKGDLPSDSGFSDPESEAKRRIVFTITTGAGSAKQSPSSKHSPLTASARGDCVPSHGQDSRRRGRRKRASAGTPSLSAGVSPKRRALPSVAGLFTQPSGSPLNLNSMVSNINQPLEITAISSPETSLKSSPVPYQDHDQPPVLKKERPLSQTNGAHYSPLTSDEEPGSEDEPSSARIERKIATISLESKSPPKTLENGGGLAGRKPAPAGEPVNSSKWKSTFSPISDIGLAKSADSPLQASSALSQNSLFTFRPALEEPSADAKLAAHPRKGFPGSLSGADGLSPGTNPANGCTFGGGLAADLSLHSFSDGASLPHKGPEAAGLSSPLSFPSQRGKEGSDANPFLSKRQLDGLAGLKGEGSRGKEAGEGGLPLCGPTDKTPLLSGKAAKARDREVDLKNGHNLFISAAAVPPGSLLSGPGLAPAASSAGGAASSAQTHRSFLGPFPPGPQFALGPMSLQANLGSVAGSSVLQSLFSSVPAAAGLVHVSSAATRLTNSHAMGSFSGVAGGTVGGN

Consider “(2E,2′E)-N,N′-(diselenediylbis(ethane-2,1-diyl))bis(3-(4-chlorophenyl)-2-(hydroxyimino)propanamide) [Compound 6]”, for which the IC50 was 0.25 µM in assay [1]; 0.28 µM in assay [2]; 0.33 µM in assay [3]; 0.33 µM in assay [4]; 0.22 µM in assay [5].

Turning to `O=C(NCC[Se][Se]CCNC(=O)/C(Cc1ccc(Br)cc1)=N/O)/C(Cc1ccc(Br)cc1)=N/O` [Compound 8, (2E,2′E)-N,N′-(diselenediylbis(ethane-2,1-diyl))bis(3-(4-bromophenyl)-2-(hydroxyimino)propanamide)], the IC50 was 0.31 µM in assay [1], 0.17 µM in assay [2], 0.39 µM in assay [3] and 0.15 µM in assay [5].

With `O=C(NCC[Se][Se]CCNC(=O)/C(Cc1ccc(O)c(Br)c1)=N/O)/C(Cc1ccc(O)c(Br)c1)=N/O` [Compound 1, (2E,2′E)-N,N′-(diselenediylbis(ethane-2,1-diyl))bis(3-(3-bromo-4-hydroxyphenyl)-2-(hydroxyimino)propanamide)], the IC50 worked out at 0.03 µM in assay [1], 0.16 µM in assay [3], 0.21 µM in assay [4] and 0.02 µM in assay [5]. In addition, the “inhibitory effect on H3K79 methylation” value in assay [6] is given as “excellent”.

Take “(2E,2′E)-N,N′-(diselenediylbis(ethane-2,1-diyl))bis(3-(4-tert-butyl)phenyl)-2-(hydroxyimino)propanamide) [Compound 12]”: the IC50 turned out to be 0.1 µM in assay [1]; 0.13 µM in assay [2]; 0.1 µM in assay [3]; 0.19 µM in assay [4]; 0.28 µM in assay [5]. Also, the “inhibitory effect on H3K79 methylation” value in assay [6] is given as “excellent”.

Regarding “(2E,2′E)-N,N′-(diselenediylbis(ethane-2,1-diyl))bis(3,4-dichlorophenyl)-2-(hydroxyimino)propanamide) [Compound 7]”, the IC50 in assay [1] is 0.28 µM; in assay [2], 0.52 µM; in assay [3], 0.25 µM; in assay [4], 0.32 µM; in assay [5] it was 0.18 µM.

“(2E,2′E)-N,N′-(diselenediylbis(ethane-2,1-diyl))bis(2-(hydroxyimino)-3-(naphthalene-2-yl)propanamide) [Compound 3]”: the IC50 was determined as 0.38 µM in assay [1]; 0.12 µM in assay [2]; 0.19 µM in assay [3]; 0.17 µM in assay [4]; 0.27 µM in assay [5].

Turning to “(2E,2′E)-N,N′-(diselenediylbis(ethane-2,1-diyl))bis(3-(4-benzyloxy)phenyl)-2-(hydroxyimino)propanamide) [Compound 10]”, the IC50 in assay [1] amounted to 0.14 µM; in assay [2], 0.1 µM; in assay [3], 0.14 µM; in assay [4], 0.28 µM; in assay [5], 0.41 µM. In assay [6], the “inhibitory effect on H3K79 methylation” value is listed as “excellent”.

For the compound `O=C(NCCSSCCNC(=O)/C(Cc1ccc(O)c(Br)c1)=N/O)/C(Cc1ccc(O)c(Br)c1)=N/O` [Psammaplin A], the IC50 was 1.76 µM in assay [1]; 0.61 µM in assay [2]; 1.31 µM in assay [3]; 1.29 µM in assay [4]; 0.56 µM in assay [5].

With “(2E,2′E)-N,N′-(diselenediylbis(ethane-2,1-diyl))bis(3-(4-ethoxyphenyl)-2-(hydroxyimino)propanamide) [Compound 9]”, the IC50 in assay [1] was determined as 0.05 µM; in assay [2], 0.07 µM; in assay [3], 0.2 µM; in assay [4], 0.18 µM; in assay [5], 0.03 µM. Also, the “inhibitory effect on H3K79 methylation” value in assay [6] is recorded as “excellent”.

For “(2E,2′E)-N,N′-(diselenediylbis(ethane-2,1-diyl))bis(2-(hydroxyimino)-3-(4-nitrophenyl)propanamide) [Compound 11]”, the IC50 in assay [1] amounted to 0.09 µM; in assay [2], 0.09 µM; in assay [3] it was 0.09 µM; in assay [4], 0.17 µM; in assay [5] it was 0.06 µM. Further, the “inhibitory effect on H3K79 methylation” value in assay [6] is reported as “excellent”.

On to “(2E,2′E)-N,N′-(diselenediylbis(ethane-2,1-diyl))bis(3-(3-chloro-4-hydroxyphenyl)-2-(hydroxyimino)propanamide) [Compound 13]”, for which the IC50 in assay [1] amounted to 0.02 µM; in assay [3], 0.17 µM; in assay [4], 0.11 µM; in assay [5] it was 0.01 µM.

As for “(2E,2′E)-N,N′-(diselenediylbis(ethane-2,1-diyl))bis(3-(3,4-difluorophenyl)-2-(hydroxyimino)propanamide) [Compound 5]”, the concentration for half-maximal inhibition (IC50) in assay [1] is 0.33 µM; in assay [2], 0.18 µM; in assay [3], 0.42 µM; in assay [4], 0.27 µM; in assay [5], 0.05 µM.

In the case of “(2E,2′E)-N,N′-(diselenediylbis(ethane-2,1-diyl))bis(3-(3-fluoro-4-hydroxyphenyl)-2-(hydroxyimino)propanamide) [Compound 14]”, the IC50 is 0.02 µM in assay [1], 0.19 µM in assay [3], 0.13 µM in assay [4] and 0.02 µM in assay [5].

As for `O=C(NCC[Se][Se]CCNC(=O)/C(Cc1ccc(F)cc1)=N/O)/C(Cc1ccc(F)cc1)=N/O` [Compound 4, (2E,2′E)-N,N′-(diselenediylbis(ethane-2,1-diyl))bis(3-(4-fluorophenyl)-2-(hydroxyimino)propanamide)], the IC50 is 0.1 µM in assay [1]; 0.11 µM in assay [2]; 0.13 µM in assay [3]; 0.14 µM in assay [4]; 0.07 µM in assay [5].

On to `COc1cc([C@@H]2c3cc4c(cc3[C@@H](O[C@@H]3O[C@@H]5CO[C@@H](C)O[C@H]5[C@H](O)[C@H]3O)[C@H]3COC(=O)[C@H]23)OCO4)cc(OC)c1O` [Etoposide, reference compound], for which the IC50 in assay [1] (A549, 72 h) amounted to 0.3 µM; in assay [2] (HCT-116, 72 h) it was 1.2 µM; in assay [3] (MDA-MB-231, 72 h), 8.7 µM; in assay [4] (SK-HEP1, 72 h), 0.4 µM; in assay [5] (SNU-638, 72 h) it was 0.2 µM.
